# Assay results as given in ChEMBL document CHEMBL5705896 (ACS Chem Biol, 2013).
# pIC50: −log10 of the molar value. Activity calls are given as the source filed them. No cut-off for these calls is given here.
# Legend:
# [1] = target: Tyrosine-protein kinase CSK (Homo sapiens) (UniProt P41240); test: Inhibition of full length human N-terminal GST tagged CSK (1 to 450 end residues) expressed in baculovirus expression system using Srctide as substrate at 10 uM by mobility shift assay relative to control
# [2] = target: Fibroblast growth factor receptor 1 (Homo sapiens) (UniProt P11362); test: Inhibition of human cytoplasmic domain N-terminal GST tagged FGFR1 (398 to 822 end residues) expressed in baculovirus expression system using CSKtide as substrate at 10 uM by mobility shift assay relative to control
# [3] = target: Platelet-derived growth factor receptor alpha (Homo sapiens) (UniProt P16234); test: Inhibition of human cytoplasmic domain N-terminal GST tagged PDGFR alpha (550 to 1089 residues) expressed in baculovirus expression system using CSKtide as substrate at 10 uM by mobility shift assay relative to control
# [4] = target: Angiopoietin-1 receptor (Homo sapiens) (UniProt Q02763); test: Inhibition of human cytoplasmic domain N-terminal GST tagged TIE2 (771 to 1124 end residues) expressed in baculovirus expression system using Blk/lyntide as substrate at 10 uM by mobility shift assay relative to control
# [5] = target: Tyrosine-protein kinase receptor TYRO3 (Homo sapiens) (UniProt Q06418); test: Inhibition of human cytoplasmic domain N-terminal GST tagged TYRO3 (453 to 890 end residues) expressed in baculovirus expression system using CSKtide as substrate at 10 uM by mobility shift assay relative to control
# [6] = target: RAC-alpha serine/threonine-protein kinase (Homo sapiens) (UniProt P31749); test: Inhibition of human catalytic domain N-terminal GST tagged AKT1 (104 to 480 end residues) expressed in baculovirus expression system using crosstide as substrate at 10 uM by mobility shift assay relative to control
# [7] = target: Interleukin-1 receptor-associated kinase 4 (Homo sapiens) (UniProt Q9NWZ3); test: Inhibition of full length human N-terminal GST tagged IRAK4 (1 to 460 end residues) expressed in baculovirus expression system using IRAK1 as substrate at 10 uM by mobility shift assay relative to control
# [8] = target: Lymphokine-activated killer T-cell-originated protein kinase (Homo sapiens) (UniProt Q96KB5); test: Inhibition of full length human N-terminal GST tagged PBK (1 to 322 end residues) expressed in baculovirus expression system using histone H3 as substrate at 10 uM by mobility shift assay relative to control
# [9] = target: Serine/threonine-protein kinase Sgk1 (Homo sapiens) (UniProt O00141); test: Inhibition of truncated human N-terminal GST-tagged SGK (61 to 431 end residues) expressed in baculovirus expression system using SGKtide as substrate at 10 uM by mobility shift assay relative to control
# [10] = target: Testis-specific serine/threonine-protein kinase 1 (Homo sapiens) (UniProt Q9BXA7); test: Inhibition of full length human N-terminal GST tagged TSSK1 (1 to 367 end residues) expressed in baculovirus expression system using GS as peptide at 10 uM by mobility shift assay relative to control
# [11] = target: 5-hydroxytryptamine receptor 1A (Homo sapiens) (UniProt P08908); test: Inhibition of 5-HT1A receptor (unknown origin) at 10 uM by radioligand binding assay relative to control
# [12] = target: 5-hydroxytryptamine receptor 2C (Homo sapiens) (UniProt P28335); test: Inhibition of 5-HT2C receptor (unknown origin) at 10 uM by radioligand binding assay relative to control
# [13] = target: 5-hydroxytryptamine receptor 5A (Homo sapiens) (UniProt P47898); test: Inhibition of 5-HT5A receptor (unknown origin) at 10 uM by radioligand binding assay relative to control
# [14] = target: Alpha-1A adrenergic receptor (Homo sapiens) (UniProt P35348); test: Inhibition of Alpha1A receptor (unknown origin) at 10 uM by radioligand binding assay relative to control
# [15] = target: Alpha-2A adrenergic receptor (Homo sapiens) (UniProt P08913); test: Inhibition of Alpha2A receptor (unknown origin) at 10 uM by radioligand binding assay relative to control
# [16] = target: Alpha-2B adrenergic receptor (Homo sapiens) (UniProt P18089); test: Inhibition of Alpha2B receptor (unknown origin) at 10 uM by radioligand binding assay relative to control
# [17] = target: Sodium-dependent dopamine transporter (Homo sapiens) (UniProt Q01959); test: Inhibition of DAT (unknown origin) at 10 uM by radioligand binding assay relative to control
# [18] = target: Kappa-type opioid receptor (Homo sapiens) (UniProt P41145); test: Inhibition of KOR (unknown origin) at 10 uM by radioligand binding assay relative to control
# [19] = target: Muscarinic acetylcholine receptor M5 (Homo sapiens) (UniProt P08912); test: Inhibition of M5 receptor (unknown origin) at 10 uM by radioligand binding assay relative to control
# [20] = target: Sodium-dependent serotonin transporter (Homo sapiens) (UniProt P31645); test: Inhibition of SERT (unknown origin) at 10 uM by radioligand binding assay relative to control
# [21] = target: Sigma intracellular receptor 2 (Homo sapiens, UniProt Q5BJF2); test: Inhibition of Sigma2 receptor (unknown origin) at 10 uM by radioligand binding assay relative to control
# [22] = target: Histone-lysine N-methyltransferase EZH2 (Homo sapiens, UniProt Q15910); test: Inhibition of EZH2 methyltransferase activity (unknown origin) in PRC2 complex using 3H-SAM as substrate by Scintillation proximity assay
# [23] = target: Histone-lysine N-methyltransferase EZH2 (Homo sapiens, UniProt Q15910, Y641F); test: Inhibition of EZH2 Y641F mutant (unknown origin) using HMT as substrate incubated for 60 mins by luminescence based analysis
# [24] = target: Histone-lysine N-methyltransferase SETD7 (Homo sapiens, UniProt Q8WTS6); test: Inhibition of SETD7 (unknown origin) using [3H-SAM] as substrate incubated for 1 hr by scintillation proximity assay
# [25] = target: Histone-lysine N-methyltransferase SETDB1 (Homo sapiens, UniProt Q15047); test: Inhibition of SETDB1 (unknown origin) using [3H-SAM] as substrate incubated for 1 hr by scintillation proximity assay
# [26] = system: MCF7; test: Effect on EZH2 level in human MCF7 cells at 5 uM incubated for 3 days by immunofluorescence staining based analysis; assay type: functional, cell-based; conditions: time 3.0 day
# [27] = system: DB; test: Antiproliferative activity against human DB cells assessed as reduction in cell viability at 3000 nM measured after 8 days by cell proliferation assay; assay type: functional, cell-based; conditions: time 8.0 day
# [28] = system: DB; test: Downregulation of H3K27me3 level in human DB cells at 3000 nM measured after 3 days; assay type: functional, cell-based; conditions: time 3.0 day
# [29] = target: 3-phosphoinositide-dependent protein kinase 1 (Homo sapiens) (UniProt O15530); test: Inhibition of full length human N-terminal GST tagged PDK1 (1 to 556 end residues) expressed in baculovirus expression system using T308tide as substrate at 10 uM by mobility shift assay relative to control
# Chain of Platelet-derived growth factor receptor alpha (Homo sapiens) (P16234 whole entry, the tested form may be a part): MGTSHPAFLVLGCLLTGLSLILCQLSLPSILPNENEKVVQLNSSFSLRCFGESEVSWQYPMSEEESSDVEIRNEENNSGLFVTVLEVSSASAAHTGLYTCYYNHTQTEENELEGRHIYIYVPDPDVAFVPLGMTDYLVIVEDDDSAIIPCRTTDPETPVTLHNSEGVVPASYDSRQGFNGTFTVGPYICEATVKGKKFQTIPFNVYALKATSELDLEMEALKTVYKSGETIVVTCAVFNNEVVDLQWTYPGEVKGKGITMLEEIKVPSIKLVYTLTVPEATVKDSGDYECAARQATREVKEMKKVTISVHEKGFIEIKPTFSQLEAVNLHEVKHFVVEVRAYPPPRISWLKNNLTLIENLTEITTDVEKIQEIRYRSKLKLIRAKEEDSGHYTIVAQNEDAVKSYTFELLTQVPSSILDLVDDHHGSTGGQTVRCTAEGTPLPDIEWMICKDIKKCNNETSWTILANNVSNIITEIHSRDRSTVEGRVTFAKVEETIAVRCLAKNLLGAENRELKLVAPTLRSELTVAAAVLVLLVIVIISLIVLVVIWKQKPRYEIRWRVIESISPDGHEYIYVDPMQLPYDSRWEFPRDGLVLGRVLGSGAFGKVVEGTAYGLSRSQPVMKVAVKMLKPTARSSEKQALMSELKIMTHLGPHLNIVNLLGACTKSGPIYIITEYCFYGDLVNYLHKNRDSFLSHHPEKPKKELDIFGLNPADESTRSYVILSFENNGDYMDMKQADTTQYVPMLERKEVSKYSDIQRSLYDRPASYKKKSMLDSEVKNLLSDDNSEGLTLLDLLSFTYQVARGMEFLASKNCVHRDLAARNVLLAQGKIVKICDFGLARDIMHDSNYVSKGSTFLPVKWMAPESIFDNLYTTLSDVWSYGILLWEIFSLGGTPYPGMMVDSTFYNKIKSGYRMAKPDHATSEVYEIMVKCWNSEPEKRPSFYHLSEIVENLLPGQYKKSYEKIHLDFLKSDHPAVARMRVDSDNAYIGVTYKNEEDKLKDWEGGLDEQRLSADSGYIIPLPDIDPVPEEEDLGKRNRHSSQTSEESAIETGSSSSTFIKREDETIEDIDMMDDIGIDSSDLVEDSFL
# Chain of 5-hydroxytryptamine receptor 1A (Homo sapiens) (P08908 whole entry): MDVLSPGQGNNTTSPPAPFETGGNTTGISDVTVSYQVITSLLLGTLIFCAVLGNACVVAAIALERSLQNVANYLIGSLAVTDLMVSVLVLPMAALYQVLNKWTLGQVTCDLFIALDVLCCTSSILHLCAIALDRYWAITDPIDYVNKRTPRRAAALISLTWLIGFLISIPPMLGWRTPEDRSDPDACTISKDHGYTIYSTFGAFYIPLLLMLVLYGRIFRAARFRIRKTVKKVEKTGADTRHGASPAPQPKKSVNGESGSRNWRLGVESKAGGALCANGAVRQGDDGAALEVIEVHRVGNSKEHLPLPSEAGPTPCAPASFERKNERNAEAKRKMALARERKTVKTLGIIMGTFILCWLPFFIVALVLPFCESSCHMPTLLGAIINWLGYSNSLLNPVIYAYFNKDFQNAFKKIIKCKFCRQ
# Chain of Tyrosine-protein kinase CSK (Homo sapiens) (P41240 2-450 limits assumed): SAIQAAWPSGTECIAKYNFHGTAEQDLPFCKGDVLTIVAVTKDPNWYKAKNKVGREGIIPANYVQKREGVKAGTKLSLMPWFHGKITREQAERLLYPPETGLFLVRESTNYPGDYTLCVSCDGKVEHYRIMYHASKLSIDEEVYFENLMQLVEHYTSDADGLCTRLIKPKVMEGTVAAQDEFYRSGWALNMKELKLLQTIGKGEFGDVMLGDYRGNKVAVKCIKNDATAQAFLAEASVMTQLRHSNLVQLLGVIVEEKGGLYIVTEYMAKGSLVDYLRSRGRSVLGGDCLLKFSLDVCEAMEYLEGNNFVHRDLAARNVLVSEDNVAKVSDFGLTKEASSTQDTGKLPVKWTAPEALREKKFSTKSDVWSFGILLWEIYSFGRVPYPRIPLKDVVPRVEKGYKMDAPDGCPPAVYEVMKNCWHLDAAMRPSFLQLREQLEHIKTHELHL
# Chain of Kappa-type opioid receptor (Homo sapiens) (P41145 whole entry): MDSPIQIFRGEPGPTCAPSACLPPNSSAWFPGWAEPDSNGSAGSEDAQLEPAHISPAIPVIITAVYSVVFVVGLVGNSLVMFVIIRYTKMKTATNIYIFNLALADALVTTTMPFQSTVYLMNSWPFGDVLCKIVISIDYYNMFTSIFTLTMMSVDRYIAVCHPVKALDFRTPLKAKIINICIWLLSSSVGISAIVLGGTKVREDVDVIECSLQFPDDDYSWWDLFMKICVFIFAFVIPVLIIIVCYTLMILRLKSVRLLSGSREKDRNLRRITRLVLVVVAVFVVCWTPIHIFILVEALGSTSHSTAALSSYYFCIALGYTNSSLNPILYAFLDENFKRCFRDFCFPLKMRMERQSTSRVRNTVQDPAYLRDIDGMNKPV
# Chain of Histone-lysine N-methyltransferase SETD7 (Q8WTS6 whole entry): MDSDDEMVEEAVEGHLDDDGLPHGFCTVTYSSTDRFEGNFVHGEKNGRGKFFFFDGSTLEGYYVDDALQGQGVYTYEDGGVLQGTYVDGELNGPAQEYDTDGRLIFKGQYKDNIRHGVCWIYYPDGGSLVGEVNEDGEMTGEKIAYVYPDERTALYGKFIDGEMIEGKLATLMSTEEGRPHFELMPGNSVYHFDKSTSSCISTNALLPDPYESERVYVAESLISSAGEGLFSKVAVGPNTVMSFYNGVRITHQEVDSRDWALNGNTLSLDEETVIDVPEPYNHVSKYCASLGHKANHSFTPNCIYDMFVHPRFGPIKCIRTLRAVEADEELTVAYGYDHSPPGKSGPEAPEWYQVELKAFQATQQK
# Chain of Alpha-1A adrenergic receptor (Homo sapiens) (P35348 whole entry): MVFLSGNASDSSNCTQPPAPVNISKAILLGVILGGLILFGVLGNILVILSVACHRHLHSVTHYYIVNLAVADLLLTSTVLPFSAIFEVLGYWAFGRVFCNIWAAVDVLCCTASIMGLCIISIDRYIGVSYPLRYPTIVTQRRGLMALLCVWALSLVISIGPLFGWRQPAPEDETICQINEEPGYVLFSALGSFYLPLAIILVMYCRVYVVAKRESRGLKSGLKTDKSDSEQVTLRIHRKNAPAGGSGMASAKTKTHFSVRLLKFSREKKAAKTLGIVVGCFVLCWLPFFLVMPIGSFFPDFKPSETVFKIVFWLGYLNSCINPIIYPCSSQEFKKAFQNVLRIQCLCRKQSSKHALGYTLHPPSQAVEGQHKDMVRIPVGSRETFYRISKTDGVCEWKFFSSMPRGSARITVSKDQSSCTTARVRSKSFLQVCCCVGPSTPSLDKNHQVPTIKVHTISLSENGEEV
# Chain of Sigma intracellular receptor 2 (Q5BJF2 whole entry): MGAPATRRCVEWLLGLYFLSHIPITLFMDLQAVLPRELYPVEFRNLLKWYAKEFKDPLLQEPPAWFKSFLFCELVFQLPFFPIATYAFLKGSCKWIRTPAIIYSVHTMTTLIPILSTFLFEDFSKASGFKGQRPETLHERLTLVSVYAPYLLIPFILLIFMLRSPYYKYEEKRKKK
# Chain of Alpha-2A adrenergic receptor (Homo sapiens) (P08913 whole entry): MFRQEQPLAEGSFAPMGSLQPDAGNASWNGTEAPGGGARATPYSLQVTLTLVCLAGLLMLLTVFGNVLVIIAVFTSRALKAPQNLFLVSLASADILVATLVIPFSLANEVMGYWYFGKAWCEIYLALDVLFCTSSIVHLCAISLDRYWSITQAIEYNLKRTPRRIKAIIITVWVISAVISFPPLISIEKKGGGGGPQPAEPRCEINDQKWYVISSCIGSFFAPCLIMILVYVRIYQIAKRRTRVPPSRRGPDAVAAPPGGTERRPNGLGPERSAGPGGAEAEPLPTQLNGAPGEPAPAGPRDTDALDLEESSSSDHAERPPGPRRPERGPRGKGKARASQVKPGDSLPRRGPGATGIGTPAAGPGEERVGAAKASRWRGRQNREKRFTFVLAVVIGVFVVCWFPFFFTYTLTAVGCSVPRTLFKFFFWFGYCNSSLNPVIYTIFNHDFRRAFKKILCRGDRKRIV
# Chain of Testis-specific serine/threonine-protein kinase 1 (Homo sapiens) (Q9BXA7 whole entry): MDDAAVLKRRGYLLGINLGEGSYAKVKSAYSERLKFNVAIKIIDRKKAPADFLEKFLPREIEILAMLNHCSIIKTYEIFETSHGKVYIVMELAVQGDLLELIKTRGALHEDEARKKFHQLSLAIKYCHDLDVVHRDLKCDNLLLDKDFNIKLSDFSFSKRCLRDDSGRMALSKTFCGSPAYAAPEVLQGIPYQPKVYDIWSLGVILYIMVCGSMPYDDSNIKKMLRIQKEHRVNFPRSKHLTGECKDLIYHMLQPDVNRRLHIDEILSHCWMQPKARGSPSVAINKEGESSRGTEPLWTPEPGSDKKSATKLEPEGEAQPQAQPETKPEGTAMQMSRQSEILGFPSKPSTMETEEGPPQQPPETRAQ
# Chain of Interleukin-1 receptor-associated kinase 4 (Homo sapiens) (Q9NWZ3 whole entry): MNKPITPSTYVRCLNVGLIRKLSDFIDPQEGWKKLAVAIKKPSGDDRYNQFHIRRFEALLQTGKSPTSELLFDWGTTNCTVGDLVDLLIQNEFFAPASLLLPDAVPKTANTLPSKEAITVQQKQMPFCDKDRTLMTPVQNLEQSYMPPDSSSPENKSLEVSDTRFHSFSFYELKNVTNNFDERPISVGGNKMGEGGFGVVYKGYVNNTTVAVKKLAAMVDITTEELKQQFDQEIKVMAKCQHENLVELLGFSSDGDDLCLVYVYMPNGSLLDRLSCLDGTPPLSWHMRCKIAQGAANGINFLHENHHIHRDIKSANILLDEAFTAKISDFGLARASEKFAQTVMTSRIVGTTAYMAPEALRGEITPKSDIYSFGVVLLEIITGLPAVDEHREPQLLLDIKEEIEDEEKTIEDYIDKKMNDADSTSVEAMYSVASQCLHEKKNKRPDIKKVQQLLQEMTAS
# Chain of Lymphokine-activated killer T-cell-originated protein kinase (Homo sapiens) (Q96KB5 whole entry, the tested form may be a part): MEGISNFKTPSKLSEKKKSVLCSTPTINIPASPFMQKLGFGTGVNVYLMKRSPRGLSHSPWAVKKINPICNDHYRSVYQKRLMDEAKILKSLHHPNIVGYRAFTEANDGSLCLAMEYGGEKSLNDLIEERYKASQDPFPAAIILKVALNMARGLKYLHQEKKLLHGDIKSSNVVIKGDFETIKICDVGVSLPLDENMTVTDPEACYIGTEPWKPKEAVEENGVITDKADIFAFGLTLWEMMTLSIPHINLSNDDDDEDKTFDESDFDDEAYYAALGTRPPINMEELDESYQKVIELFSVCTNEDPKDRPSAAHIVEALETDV
smiles,measurement,setting,value
CCCc1cc(C)[nH]c(=O)c1CNC(=O)c1cc(-c2ccc(N3CCN(C(C)C)CC3)nc2)cc2c1cnn2C(C)C,inhibition,[1],-4%
same,inhibition,[2],-9%
same,inhibition,[3],-5%
same,inhibition,[4],-6%
same,inhibition,[5],-1%
same,inhibition,[6],-6%
same,inhibition,[7],-7%
same,inhibition,[8],-10%
same,inhibition,[9],-3%
same,inhibition,[10],5%
same,inhibition,[11],11%
same,inhibition,[12],22%
same,inhibition,[13],10%
same,inhibition,[14],3%
same,inhibition,[15],14%
same,inhibition,[16],48%
same,inhibition,[17],36%
same,inhibition,[18],34%
same,inhibition,[19],9%
same,inhibition,[20],6%
same,inhibition,[21],93%
same,pIC50,[22],> 8.00
same,pIC50,[23],> 7.82
same,pIC50,[24],< 4.00
same,pIC50,[25],< 4.00
same,Activity,[26],inactive
same,Activity,[27],Active
same,Activity,[28],Active
same,inhibition,[29],-6%
